How the values were obtained:
[1] = Oxotremorine test: inhibition of salivation; design: species or system albino rats (Crl:COBS-CD (SD) BR strain); settings: in vivo, iv; rat, i.v. 15 minutes before oxotremorine 0.083 mg/kg i.v.; double blind
Procedure: (§1) Oxotremorine, a specific agonist for muscarinic receptors, produces lesions in the mucous membrane of the stomach in rats and increases their secretion of saliva. This test method was chosen so that any selective activity of an antimuscarinic substance on the stomach could be identified.
(§2) 10 female albino rats (of the Crl:COBS-CD (SD) BR strain) with a body weight of from 120 to 150 g were used in each treatment group and were kept without food for 24 hours before the start of the test but given free access to drinking water.
(§3) In order to determine, in preliminary tests, the muscarinic effect of oxotremorine on each of the symptoms studied, a dosage/activity curve was drawn up with at least three dosages for each symptom.
(§4) When testing the antimuscarinic substances, the dosage of oxotremorine which triggered the symptom in question in 90 to 100% of the animals in the preliminary tests was used.
Secretion of saliva: 0.083 mg/kg i.v.
(§5) Each antimuscarinic substance was administered intravenously in uniformly graduated doses 15 minutes before the oxotremorine was administered. Control groups were given corresponding quantities of the solvent and suspending agent without the test substance.
(§6) Immediately after the oxotremorine was administered, the animals were placed in a glass case for 15 minutes and observed.
(§7) The ED50 values were determined using the method described by LITCHFIELD and WILCOXON (J. Pharmacol. Exp. Ther. 96, 99, 1949).

[2] = biological target: T1, muscarinic receptors (whole heart) (Rattus norvegicus, UniProt P10980); test: Receptor binding test (3H-N-methylscopolamine displacement), heart; design: species or system Sprague-Dawley rats; settings: 0.3 n molar 3H-NMS, 30° C., 45 minutes, read-out: Receptor binding tests IC50, Heart
T1 construct: All the organs were then homogenized in a Potter apparatus; from tissue; host or cells: whole heart homogenate of male Sprague-Dawley rats
T1 sequence (P10980 1-466): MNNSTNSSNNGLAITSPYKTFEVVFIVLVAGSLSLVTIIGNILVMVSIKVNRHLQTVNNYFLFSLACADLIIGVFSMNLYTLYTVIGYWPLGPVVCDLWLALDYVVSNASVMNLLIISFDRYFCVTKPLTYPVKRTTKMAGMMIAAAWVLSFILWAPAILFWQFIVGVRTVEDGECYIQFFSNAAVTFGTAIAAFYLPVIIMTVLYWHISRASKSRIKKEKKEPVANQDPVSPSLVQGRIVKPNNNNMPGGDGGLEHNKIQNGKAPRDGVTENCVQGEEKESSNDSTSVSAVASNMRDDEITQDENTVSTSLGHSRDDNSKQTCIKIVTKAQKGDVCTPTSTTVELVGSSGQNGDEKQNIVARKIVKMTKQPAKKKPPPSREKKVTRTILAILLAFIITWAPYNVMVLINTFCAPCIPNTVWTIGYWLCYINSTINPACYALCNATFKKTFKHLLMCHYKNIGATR
Procedure: (§8) The organ donors were male Sprague-Dawley rats with a body weight of from 180 to 200 g. After the heart, stomach and cerebral cortex had been removed, the remainder of the operation was carried out in ice-cold Hepes-HCl buffer (pH 7.4; 100 m molar NaCl, 10 m molar MgCl2). The smooth muscle of the fundus of the stomach was separated from the mucous membrane of the stomach and subjected to preliminary homogenization. The whole heart was cut up with scissors. All the organs were then homogenized in a Potter apparatus.
(§9) For the binding test, the homogenized organs were diluted as follows:
The homogenized organ preparations were incubated at a specific concentration of a radio labeled compound and with a series of concentrations of the non-radioactive test substances in an Eppendorf centrifuge tube at 30° C. Then duration of incubation was 45 minutes. 0.3 n molar ^3 H-N-methylscopolamine (^3 H-NMS) was used as the radio labeled compound. After incubation had been brought to an end by centrifuging at 14 000 g, the radioactivity in the pellet was determined. It represents the sum of the specific and non-specific binding of ^3 H-NMS. The proportion of non-specific binding was defined as the radioactivity which was bound in the presence of 1μ molar quinuclidinylbenzylate. Four measurements were taken in each case. The IC50 values of the non-labelled test substances were determined graphically. […]

[3] = system: muscarinic receptors (oxotremorine-induced lesions of the gastric mucous membrane); test: Oxotremorine test: anti-ulcerative effect (lesions in mucous membrane of stomach); format: in vivo, albino rats (Crl:COBS-CD (SD) BR strain); settings: iv; rat, i.v. 15 minutes before oxotremorine 0.62 mg/kg i.v.; neostigmine 1 mg/kg oral
Procedure: as §1, §2, §3, §4
Lesions in mucous membrane of stomach: 0.62 mg/kg i.v.
as §5, §6, §7
The effects on lesions of the mucous membrane of the stomach were evaluated as follows:
The lesions of the gastric mucous membrane were produced by intravenous injection of 0.62 mg/kg of oxotremorine 30 minutes after the oral administration of 1 mg/kg of neostigmine (a cholinesterase inhibitor). 60 minutes after the administration of the neostigmine, the animals were killed, the stomachs were removed and opened and examined for the presence of any lesions in the mucous membrane. The protective effect of the test substances was expressed as the percentabge inhibition (percentage of animals without lesions). The ED50 and ED70 values were determined using the method of LITCHFIELD AND WILCOXON (see above).

[4] = Mydriasis (effect on pupil size); design: species or system rats; settings: in vivo, iv; rat, pupil size observed for 10 minutes; double blind
Procedure: The effect of the test substances on the pupil size in rats was investigated as follows:
The substances were administered intravenously to groups of 10 animals in at least three uniformly graduated doses. […] The percentage of test animals in which mydriasis occurred was determined. The ED50 values were again determined using the method of LITCHFIELD and WILCOXON (see above).

[5] = biological target: muscarinic receptors (smooth muscle of the fundus of the stomach); test: Receptor binding test (3H-N-methylscopolamine displacement), smooth muscle fundus of stomach; design: species or system Sprague-Dawley rats; settings: 0.3 n molar 3H-NMS, 30° C., 45 minutes, read-out: Receptor binding tests IC50, Smooth muscle fundus of stomach
Procedure: as §8, §9
Smooth muscle of the fundus of the stomach: 1:100
(§10) The homogenized organ preparations were incubated at a specific concentration of a radio labeled compound and with a series of concentrations of the non-radioactive test substances in an Eppendorf centrifuge tube at 30° C. Then duration of incubation was 45 minutes. 0.3 n molar ^3 H-N-methylscopolamine (^3 H-NMS) was used as the radio labeled compound. After incubation had been brought to an end by centrifuging at 14 000 g, the radioactivity in the pellet was determined. It represents the sum of the specific and non-specific binding of ^3 H-NMS. The proportion of non-specific binding was defined as the radioactivity which was bound in the presence of 1μ molar quinuclidinylbenzylate. Four measurements were taken in each case. The IC50 values of the non-labelled test substances were determined graphically. They represent the concentration of test substance at which the specific binding of ^3 H-NMS to the muscarinic receptors in the various organs was inhibited by 50%.

[6] = biological target: muscarinic receptors (cerebral cortex); test: Receptor binding test (3H-N-methylscopolamine displacement), cerebral cortex; design: species or system Sprague-Dawley rats; settings: 0.3 n molar 3H-NMS, 30° C., 45 minutes, read-out: Receptor binding tests IC50, Cortex
Procedure: as §8, §9, §10

[7] = Water solubility of the base (remark); format: physicochemical; settings: free base

Row | SMILES | ED50 at 0.25 h [1] | IC50 [2] | ED50 [3] | ED70 [3] | ED50 at 10 min [4] | IC50 [5] | IC50 [6] | water solubility (in words) [7]
1 | CN1CCC(OC(=O)N2c3ccccc3C(=O)Nc3cccnc32)CC1 [A, 5,11-dihydro-11-[[(1-methyl-4-piperidinyl)oxy]carbonyl]-6H-pyrido[2,3,-b][1,4]benzodiazepin-6-one] | 0.85 mg/kg | 0.5 µM | 0.01 mg/kg | 0.03 mg/kg | 0.13 mg/kg | ~0.9 µM | 0.1 µM | –
2 | CN1CCN(NC(=O)N2c3ccccc3C(=O)Nc3cccnc32)CC1 [C] | 0.056 mg/kg | – | 0.0033 mg/kg | 0.0052 mg/kg | 0.07 mg/kg | 0.9 µM | 0.06 µM | watersoluble
3 | CN1CCC(NC(=O)N2c3ccccc3C(=O)Nc3cccnc32)CC1 [B, 5,11-dihydro-11-[[(1-methyl-4-piperidinyl)amino]carbonyl]-6H-pyrido[2,3-b][1,4]benzodiazepin-6-one] | 0.42 mg/kg | – | 0.0068 mg/kg | 0.019 mg/kg | 0.139 mg/kg | 1.2 µM | 0.2 µM | –

From patent US4424222A, “Pyridobenzodiazepinones, pharmaceutical compositions and method of use thereof” (Karl Thomae GmbH, priority 1982, dated 1984)
